Assay results taken from US10874709B2, “Conjugate of salicylic acid and peptide” (CAREGEN CO., LTD., priority 2017, dated 2020).
Ends that are not written are not given here.

Experiments:
[1] = tested on: HaCaT keratinocyte cell line; assay: Keratinocyte growth, sulforhodamine B colorimetric assay; assay type: cell-based; conditions: 50 μM, 72 hours, SRB, absorbance 560 nm
Method: (Cancer Res. 48:4266(1988)) […] The cultured cell line was detached from the bottom of the culture plate using a 1% trypsin solution, and only cell precipitate was collected by centrifugation. The cell precipitate was suspended in DMEM without FBS, and then cultured for 24 hours under conditions of 37° C. and 5% CO2. 24 hours later, the medium was replaced by the same medium from which serum was completely removed. A blank sample in which the cell precipitate was dissolved sterile in 10% DMSO was prepared for standardization. Each of the compound 1 to the compound 4 (50 μM) of the present disclosure, salicylic acid (50 μM), and EGF (100 nM) as a positive control were treated. Incubation was carried out under the same conditions as above for 72 hours. After completing the incubation, each culture supernatant was removed and cells were fixed with ethanol and washed with phosphate buffer saline (PBS) three times. After removing the washing solution, the cells were treated with a colorimetric SRB solution, and then sufficiently washed with 1% acetic acid. The cells were observed under a microscope to examine living cells. Absorbance at UV 560 nm was measured to determine cell viability.

[2] = Test of solubility in water; assay type: physicochemical; conditions: distilled water, concentration of 10 mg/ml
[3] = tested on: TNF-α, IL-6, IL-1b, and COX-2; assay: Anti-inflammatory effect, Propionibacterium acnes-induced inflammatory cytokine mRNA by RT-PCR; assay type: cell-based; conditions: keratinocyte, 50 μg/ml Propionibacterium acnes, 50 μM, 24 hours
Method: Anti-inflammatory effects of the compounds of the present disclosure were examined using Propionibacterium acnes. To this end, keratinocyte was seeded in a 6-well plate at a density of 300,000 cells per well, and then incubated in a DMEM culture medium (Gibco, USA) containing 10% FBS for 24 hours under conditions of 37° C. and 5% CO2. After replacing the medium by a fresh medium, the cells were treated with 50 μg/ml of Propionibacterium acnes, and then the treated Propionibacterium acnes was treated with each 50 μM of the compound 1 and the compound 3 of the present disclosure and salicylic acid used as the positive control, followed by incubation for 24 hours under the same conditions as above. RNA was isolated from the cells, and cDNA was synthesized using a cDNA synthesis kit (Intron, Korea). PCR premix (Intron, Korea) and primers for each of TNF-α, IL-6, IL-1b, and COX-2 in Table 3 below were used to perform PCR. mRNA levels of TNF-α, IL-6, IL-1 b and COX-2 were determined by 5% agarose gel electrophoresis.

Propionibacterium acnes = assay: Antibacterial effect, paper disc clear zone on agar plate; assay type: cell-based; conditions: paper discs soaked with 200 mM, 3 days
Method: Antibacterial effects of the compounds synthesized in Example <1-2> were examined using Propionibacterium acnes. To this end, Propionibacterium acnes was first cultured on an agar plate. Paper discs were soaked with each 200 mM of the compound 1 to the compound 4 synthesized in Example <1-2> and salicylic acid, and then the paper disc soaked with the sample was placed on the agar plate on which Propionibacterium acnes had been cultured, followed by incubation. 3 days later, the size of a clear zone with no microbial growth was measured to determine the antibacterial effect of each compound.

[4] = tested on: collagen, elastin, and fibronectin; assay: Extracellular matrix protein expression by immunocytostaining; assay type: cell-based; conditions: NIH3T3 fibroblast, 50 μM, 72 hours, as compared with salicylic acid
Method: (§1) Effects of the compounds of the present disclosure on extracellular matrix expression were examined using NIH3T3 fibroblast. To this end, NIH3T3 fibroblast was seeded in a 6-well plate at a density of 300,000 cells per well, and then incubated in a DMEM culture medium (Gibco, USA) containing 10% FBS for 24 hours under conditions of 37° C. and 5% CO2. The cultured cell line was detached from the bottom of the culture plate using a 1% trypsin solution, and a cell precipitate was collected by centrifugation. The cell precipitate was suspended in DMEM without FBS, and then cultured for 24 hours under conditions of 37° C. and 5% CO2. 24 hours later, the medium was replaced by the same medium from which serum was completely removed. A blank sample in which the cell precipitate was dissolved sterile in 10% DMSO was prepared for standardization. Each of the compound 1 and the compound 3 of the present disclosure, and salicylic acid as a positive control were treated at a concentration of 50 μM. Incubation was carried out under the same conditions as above for 72 hours. Thereafter, to examine collagen, elastin, and fibronectin expression by immunocytostaining, cells were fixed with 4% paraformaldehyde, permeated with 0.5% Triton X-100, and blocked with 3% BSA. […]

[5] = tested on: collagen, elastin, and fibronectin; assay: Extracellular matrix mRNA expression by RT-PCR; assay type: cell-based; conditions: NIH3T3 fibroblast, 50 μM, 72 hours, as compared with salicylic acid
Method: as §1, with “hours.” for “hours. Thereafter, to examine collagen, elastin, and fibronectin expression by immunocytostaining, cells were fixed with 4% paraformaldehyde, permeated with 0.5% Triton X-100, and blocked with 3% BSA.”
Meanwhile, RNA was isolated from the cells treated in the same manner as the above experiment, and then cDNA was synthesized using a cDNA synthesis kit (Intron, Korea). […] Thereafter, mRNA levels of collagen, elastin, and fibronectin were determined by 5% agarose gel electrophoresis.

O=C(O)c1ccccc1O [salicylic acid, 2-hydroxybenzoic acid]
growth of keratinocytes [1]: inhibited growth of keratinocytes due to toxicity | solubility in water [2]: hardly dissolved in water | expression of inflammatory cytokines induced by Propionibacterium acnes [3]: hardly inhibited

compound 3: salicylic acid linked via covalent bond to peptide of SEQ ID NO: 3 (KLKKTETQ) (also: salicylic acid linked via covalent bond)
expression of inflammatory cytokines induced by Propionibacterium acnes [3]: remarkably reduced | antibacterial effect (size of clear zone) (Propionibacterium acnes): remarkably increased antibacterial effects | protein expression levels of collagen, elastin, and fibronectin [4]: remarkably increased | mRNA expression levels of collagen, elastin, and fibronectin [5]: remarkably increased
